By IC50 is commonly meant the concentration that gives 50% inhibition.

This is an account of results in US5686424A, “2-oxoethyl derivatives as immunosuppressants” (Miles Inc., priority 1995, dated 1997).

Read-outs that look alike come from different tables or passages of the source.

One experiment deals with FKBP (Homo sapiens, UniProt P62942). Description: PPIase Inhibition Assay. The class given is biochemical. On the procedure:
1) Inhibition of PPIase Activity
This assay follows in principle the procedure described in Kofron et al., 1991, Biochemistry 30:6127.
The three main reagents used are PPIase, a substrate for PPIase, and a selected inhibitor compound of the present invention. The basic principle behind this assay is the conversion of the cis isomer of the substrate to the trans form, which conversion is catalyzed by PPIase. Essentially, inhibition of this PPIase activity is measured for the selected compounds. A peptide chymotrypsin substrate containing a proline in the P2 position is only cleaved by chymotrypsin when the Phe-Pro bond is in the trans isomeric configuration. In the presence of excess chymotrypsin, all of the trans peptide isomers are cleaved within approximately five seconds, leaving only cis forms.
The cis peptide will spontaneously convert to the trans isomer at a slow rate. The cis to trans conversion is catalyzed by isomerases at a much faster rate than this spontaneous conversion. Proteins with PPIase activity are examples of such isomerases. After isomerization, the peptide is cleaved by chymotrypsin releasing p-nitroaniline which can be monitored at 390 nm. The rate of release is then calculated using a first order rate plus offset equation utilizing the ENZFITTER program (Leatherbarrow, BIOSOFT, Cambridge, United Kingdom).
In a plastic cuvette are added 950 ul of ice cold assay buffer (25 mM HEPES, pH 7.8, 100 mM NaCl), 10 uL of FKBP (2.5 uM in 10 mM Tris-Cl pH 7.5, 100 mM NaCl, 1 mM dithiothreitol), 25 ul of chymotrypsin (50 mg/ml in 1 mM HCl) and 10 ul of the test compound at various concentrations in dimethyl sulphoxide. The reaction is initiated by addition of 5 ul of substrate (Succinyl-Ala-Phe-Pro-Phe-para-nitroanilide, 5 mg/ml in 235 mM LiCl in trifluoroethanol).
The absorbance at 390 nm versus time is monitored for 90 sec using a Beckman DU70 spectrophotometer. The absorbance versus time data files are transferred to an IBM XT computer and the rate constants determined using the commercial enzfitter program. For each set of data, the uncatalyzed rate of conversion is measured and the uninhibited enzymatic rate determined. The data are expressed as % Activity remaining and are calculated as follows:
% Activity Remaining=(kobs -kuncat)/(kuninh
where kobs is the rate in the presence of a selected test compound, kuncat is the rate in the absence of enzyme, and kuninh is the rate in the presence of enzyme
Data was plotted as the velocity in the absence of the inhibitor (V-) divided by the velocity in the presence of inhibitor (V+) versus the inhibitor concentration. The IC50 can be determined following linear regression as the inhibitor concentration where

A further experiment concerns human T-cells. Description: Suppression of Human T-Cell Proliferation Assay (PHA-stimulated, [3H]-thymidine incorporation). The class given is cell-based. Conditions: read-out: IC50. The text has this:
2) Human T Lymphocyte Inhibition
Inhibition of mitogen-induced T-cell proliferation can be used to profile immunosuppressive activity of test compounds. In the description of the assay which follows, mitogen-induced T-cell activation was used to test the inhibitory potencies of select compounds of the present invention.
In an assay similar to that described by Bradley in Mishell et al. (Eds.), 1980, Selected Methods in Cellular Immunology, pp 156-161, W. H. Freeman & Co., San Fransisco, Calif., T-cells were stimulated by incubation with phytohemagglutinin (PHA) which binds to cell surface molecules, including the T-cell receptor. This stimulation results in proliferation which can be measured by incorporation of [^3 H]-thymidine into cellular DNA.
The immunosuppressive properties of the compounds of the present invention can be determined by adding various concentrations of the compounds to these cultures and measuring the effect on T-cell proliferation.
Suppression of Human T-Cell Proliferation Assay
Fresh LeukoPaks were obtained from the New York Blood Center, New York, N.Y. The cells, including erythrocytes and leukocytes, were diluted with Hank's Balanced Salt Solution (HBSS) (GIBCO, Grand Island, N.Y.) and layered over Lymphoprep (Nycomed Pharma AS, Oslo, Norway) in sterile 50 ml conical centrifuge tubes. Lymphocytes were isolated at the Hank's/Nycomed interface after centrifugation at 2000×g, 4° C. for 15 min. The lymphocytes were washed with Minimal Essential Medium (GIBCO) containing 2% fetal bovine serum (FBS) (Sigma Chemical Co., St. Louis, Mo.), 1% HEPES buffer (GIBCO) and 1% Penicillin-Stretomycin solution (GIBCO).
T-cells were further purified essentially by sheep erythrocyte (SRBC) rosetting as described by Morimoto et al., 1983, J. Immunol. 130:157. The isolated lymphocytes were adjusted to 2×10^7 cells/ml and 5 ml aliquots of the cell suspension were incubated for 10 minutes at room temperature with 5 ml of a 5% SRBC (Cappel, Organon Technika Corp., West Chester, Pa.) suspension. The cells were gently pelleted by centrifugation at 300 rpm for 10 minutes, followed by a 1 hour incubation at room temperature to allow rosette formation. The cells were gently resuspended,layered over Lymphoprep and centrifuged for 30 minutes at 500×g. The pellet, containing rosetted T-cells and SRBC was treated with ice cold buffered ammonium chloride (GIBCO) to lyse the erythrocytes. T-cells were washed twice with HBSS.
Purified T-cells were resuspended at 2×10^6 cells/ml in complete culture medium composed of RPMI-1640 (Whittaker Bioproducts, Walkerville, Md.) with 10% FBS (Sigma), 2 mM L-glutamine (GIBCO), 1% Penicillin-Streptomycin (GIBCO) and 15 mM HEPES (GIBCO). In 96-well plates (Becton Dickinson, Lincoln Park, N.J.), 0.1 ml aliquots of T-cell suspension were mixed with 0.05 ml of 40 μg/ml PHA-M (Sigma). The compounds of this invention were dissolved in dimethylsulfoxide at 10 mM and various dilutions in complete medium were added in duplicate wells (0.05 ml/well). The plates were incubated at 37° C. in a humidified atmosphere of 5% carbon dioxide and 95% air for 72 hours.
Proliferation was assessed by measurement of [^3 H]-thymidine incorporation. During the last 6 hours of incubation, the cells were pulse labelled with 1 μCi/well of [^3 H]-thymidine (New England Nuclear, Boston, Mass.). The cells were harvested onto glass fiber paper using a plate harvester and the radioactivity incorporated into cellular DNA corresponding to individual wells was measured by standard liquid scintillation counting methods.
In general terms: Incorporation of labelled thymidine or its analogues reports DNA synthesis.

The mark [1] stands for this setting: concentration of inhibitor required for 50% inhibition of enzyme activity, FKBP, substrate Succinyl-Ala-Phe-Pro-Phe-para-nitroanilide, TABLE I.
[2] abbreviates: concentration inhibiting [3H]-thymidine incorporation of PHA-stimulated T-cells by 50%, 72 hours, TABLE 2.

FKBP, sequence (P62942 whole entry): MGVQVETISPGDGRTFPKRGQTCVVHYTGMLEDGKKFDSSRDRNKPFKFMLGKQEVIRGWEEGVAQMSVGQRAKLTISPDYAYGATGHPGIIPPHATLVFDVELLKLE

Regarding `C/C=C/C=C/COC(=O)CN1CCC[C@H]1C(=O)N[C@H](C(=O)NCc1ccccc1)[C@@H](C)CC` (relative stereo) [Example 12, L-Isoleucine, N-[1-(2-(trans,trans-Hexa-2,4-dienyl-1-oxy)-2-Oxoethyl)-L-Prolyl] Benzylamide], the IC50 was 5.8 µM against FKBP (setting [1]) and 35 µM with human T-cells (setting [2]).

Regarding `CC[C@H](C)[C@H](NC(=O)[C@@H]1CCCN1CC(=O)OCc1ccccc1)C(=O)NCc1ccccc1` [Example 5, L-Isoleucine, N-[1-(2-Benzyloxy-2-Oxoethyl)-L-Prolyl] Benzylamide], at FKBP (setting [1]), half-maximal inhibition (IC50) was put at 2.2 µM.

Consider `CC[C@H](C)[C@H](NC(=O)[C@@H]1CCCN1CC(=O)OC)C(=O)NCc1ccccc1` [Example 6, L-Isoleucine, N-[1-(2-Methoxy-2-Oxoethyl)-L-Prolyl] Benzylamide], for which, on FKBP, the IC50 was less than 50 µM.

Regarding `CC[C@H](C)[C@H](NC(=O)[C@@H]1CCCN1CC(=O)c1ccccc1)C(=O)NCc1ccccc1` [Example 7, L-Isoleucine, N-[1-(2-Phenyl-2-Oxoethyl)-L-Prolyl] Benzylamide], the figures for the IC50 on FKBP (setting [1]) and with human T-cells (setting [2]) were 2.7 µM and less than 50 µM, respectively.

Consider `CC[C@H](C)[C@H](NC(=O)[C@@H]1CCCN1CC(=O)c1ccc2ccccc2c1)C(=O)NCc1ccccc1` [Example 8, L-Isoleucine, N-[1-(2-Naphth-2-yl-2-Oxoethyl)-L-Prolyl] Benzylamide], for which the IC50 at FKBP (setting [1]) turned out to be 3.4 µM; in the experiment with human T-cells (setting [2]), 50 µM.

`CC[C@H](C)[C@H](NC(=O)[C@@H]1CCCN1CC(=O)c1ccc(-c2ccccc2)cc1)C(=O)NCc1ccccc1` [Example 9, L-Isoleucine, N-[1-(2-(Biphenyl-4-yl)-2-Oxoethyl)-L-Prolyl] Benzylamide]: the IC50 at FKBP is less than 50 µM; in the experiment on human T-cells it was 50 µM.

As for `CC[C@H](C)[C@H](NC(=O)[C@@H]1CCCN1CC(=O)c1sc2ccc(Cl)cc2c1C)C(=O)NCc1ccccc1` [Example 11, L-Isoleucine, N-[1-(2-(5-Chloro-3-Methyl-benzo[B]thiophene-2-yl)-2-Oxoethyl)-L-Prolyl] Benzylamide], the IC50 at FKBP (setting [1]) amounted to 50 µM; with human T-cells (setting [2]) it was 34 µM.

As to `CC[C@H](C)[C@H](NC(=O)[C@@H]1CCCN1CC(=O)c1ccc(Cl)cc1)C(=O)NCc1ccccc1` [Example 13, L-Isoleucine, N-[1-(2-(4-Chlorophenyl)-2-Oxoethyl)-L-Prolyl] Benzylamlde], the IC50 was less than 50 µM against FKBP (setting [1]) and more than 50 µM with human T-cells (setting [2]).

As to `CC[C@H](C)[C@H](NC(=O)[C@@H]1CCCN1CC(=O)c1ccc(C)cc1)C(=O)NCc1ccccc1` [Example 14, L-Isoleucine, N-[1-(2-(4-Methylphenyl)-2-Oxoethyl)-L-Prolyl] Benzylamide], the IC50 against FKBP (setting [1]) is less than 50 µM; in the experiment on human T-cells (setting [2]) it was more than 50 µM.

Take `CC[C@H](C)[C@H](NC(=O)[C@@H]1CCCN1CC(=O)c1ccc(OC)cc1)C(=O)NCc1ccccc1` [Example 15, L-Isoleucine, N-[1-(2-(4-Methoxylphenyl)-2-Oxoethyl)-L-Prolyl] Benzylamide]: the figures for the IC50 against FKBP (setting [1]) and in the experiment with human T-cells (setting [2]) were less than 50 µM and 17 µM, respectively.

Turning to `CC[C@H](C)[C@H](NC(=O)[C@@H]1CCCN1CC(=O)c1ccc(OC)cc1OC)C(=O)NCc1ccccc1` [Example 28, L-Isoleucine, N-[1-(2-(2,4-Dimethoxyphenyl)-2-Oxoethyl)-L-Prolyl] Benzylamide], the IC50 on FKBP (setting [1]) was less than 50 µM.

In the case of `CC[C@H](C)[C@H](NC(=O)[C@@H]1CCCN1CC(=O)c1ccccc1[N+](=O)[O-])C(=O)NCc1ccccc1` [Example 29, L-Isoleucine, N-[1-(2-(2-Nitrophenyl)-2-Oxoethyl)-L-Prolyl] Benzylamide], the IC50 at FKBP (setting [1]) was less than 50 µM.

As for `CC[C@H](C)[C@H](NC(=O)[C@@H]1CCCN1CC(=O)c1ccc([N+](=O)[O-])cc1)C(=O)NCc1ccccc1` [Example 30, L-Isoleucine, N-[1-(2-(4-Nitrophenyl)-2-Oxoethyl)-L-Prolyl] Benzylamide], at FKBP (setting [1]), the IC50 is less than 50 µM.

For the compound `CC[C@H](C)[C@H](NC(=O)[C@@H]1CCCN1CC(=O)c1ccc(-c2ccccc2)cc1)C(=O)N1CCc2ccccc2C1` [Example 50, L-Isoleucine, N-[1-(2-(Biphenyl-4-yl)-2-Oxoethyl)-L-Prolyl] 1,2,3,4-Tetrahydroisoquinolinamide], the IC50 on FKBP is 50 µM.

Regarding `CC[C@H](C)[C@H](NC(=O)[C@@H]1CCCN1CC(=O)c1ccc(-c2ccccc2)cc1)C(=O)OCc1ccccc1` [Example 51, L-Isoleucine, N-[1-(2-(Biphenyl-4-yl)-2-Oxoethyl)-L-Prolyl] Benzyl Ester], the IC50 against FKBP is more than 50 µM.

The compound `CSCC[C@H](NC(=O)[C@@H]1CCCN1CC(=O)c1ccc(-c2ccccc2)cc1)C(=O)NCc1ccccc1` [Example 54, L-Methionine, N-[1-(2-(Biphenyl-4-yl)-2-Oxoethyl)-L-Prolyl] Benzylamide] registered a half-inhibitory concentration (IC50) against FKBP of more than 50 µM.

On FKBP (setting [1]), `CCOC(=O)C1CCCN(C(=O)CN2CCC[C@H]2C(=O)N[C@H](C(=O)NCc2ccccc2)[C@@H](C)CC)C1` (stereo partly drawn) [Example 72, L-Isoleucine, N-[1-[2-[N-(Piperidine-3-Carboxylic Acid Ethyl Ester)]-2-Oxoethyl]-L-Prolyl] Benzylamide] gave an IC50 of less than 5 µM.

As for `CC[C@H](C)[C@H](NC(=O)[C@@H]1CCCN1CC(=O)NC1CCCC1)C(=O)NCc1ccccc1` [Example 79, L-Isoleucine, N-[1-[2-(N-Cyclopentylamino)-2-Oxoethyl]-L-Prolyl] Benzylamide], on FKBP (setting [1]), the IC50 is more than 5 µM.

Regarding `CC[C@H](C)[C@H](NC(=O)[C@@H]1CCCN1CC(=O)NCc1ccccc1)C(=O)NCc1ccccc1` [Example 80, L-Isoleucine, N-[1-[2-(N-(Phenylmethylamino))-2-Oxoethyl]-L-Prolyl] Benzylamide], the IC50 against FKBP (setting [1]) is more than 5 µM.

Regarding `CC[C@H](C)[C@H](NC(=O)[C@@H]1CCCN1CC(=O)NCC1CCCCC1)C(=O)NCc1ccccc1` [Example 81, L-Isoleucine, N-[1-[2-(N-(Cyclohexylmethylamino))-2-Oxoethyl]-L-Prolyl] Benzylamide], the IC50 against FKBP (setting [1]) was more than 5 µM.
